Experimental findings from patent publication US20250283073A1 (ORNA THERAPEUTICS, INC., priority 2021, published 2025) are described below.

One data set concerns splenic immune cells. In words: Cre circRNA LNP transfection of splenic immune cells in Ai9 Cre reporter mice (tdTomato). As to conditions: 0.5 mg/kg Cre RNA LNPs i.v., 48 hours. It is filed as in vivo. The protocol: Circular RNAs encoding Cre recombinase (Cre) are encapsulated into lipid nanoparticles as previously described. Female, 6-8 week old B6.Cg-Gt(ROSA)26Sortm9(CAG-tdTomato)Hze/J (Ai9) mice were dosed with lipid nanoparticles at 0.5 mg/kg RNA intravenously. Fluorescent tdTomato protein was transcribed and translated in Ai9 mice upon Cre recombination, meaning circular RNAs have been delivered to and translated in tdTomato+ cells. After 48 hr, mice were euthanized and the spleens were harvested, processed into a single cell suspension, and stained with various fluorophore-conjugated antibodies for immunophenotyping via flow cytometry.
Ai9 mice (B6.Cg-Gt(ROSA)26Sortm9(CAG-tdTomato)Hze/J, female, 6-8 weeks, n=3 per group) were injected i.v. with 0.5 mg/kg Cre circRNA LNPs or PBS. Ai9 mice transcribe and translate the fluorescent reporter tdTomato upon Cre recombination; meaning cells which are tdTomato+ have successfully been transfected with Cre circRNA. […] Flow cytometry was performed using an Attune Nxt Flow Cytometer (Thermo).

The next data set deals with primary human T cells. The experiment in a line: FLuc circRNA LNP transfection of activated primary human T cells with or without ApoE3. In kind it is cell-based. As to conditions: 200 ng RNA/well, 24 hours, 4 donors. As to the method:
Primary human T cells from independent donors were stimulated with aCD3/aCD28 and allowed to proliferate for 6 days in the presence of human serum and IL-2. Then, 100,000 cells were plated in a 96 well plate and LNPs containing circRNA coding for Firefly Luciferase (FLuc) were added to the cells at 200 ng RNA/well with or without Apolipoprotein E3 (ApoE3). After 24-hour incubation, luminescence was quantified using the Bright-Glo Luciferase Assay System (Promega) according to manufacturer's instructions and background luminescence from cells not treated with LNPs was subtracted. […] (See Example 70 for LNP formulation procesure, e.g., for 10a-27 (5.7A), 10a-26 (5.7A), 10a-27 (4.5D), and 10a-26 (4.5D) LNPs.)

The test system of another data set is 1C1C7 cells. In words: Gaussia luciferase expression and stability by IRES in 1C1C7 cells. As to conditions: 1C1C7, 24 and 48 hours.

As for `CCCCCCCCC(CCCCCC)C(=O)OCCCCCCN(CCCCCCOC(=O)C(CCCCCC)CCCCCCCC)CCCn1ccnc1C` (stereo not drawn) [Lipid 10a-27, ((3-(2-methyl-1H-imidazol-1-yl)propyl)azanediyl)bis(hexane-6,1-diyl) bis(2-hexyldecanoate)], in the data set on splenic immune cells, the “tdTomato+ splenic immune cells” value was “transfect significantly more splenic immune cells than those made with Lipid 10a-46”. Besides, the Firefly luminescence result with primary human T cells is given as “generally produced higher luminescence than those containing Lipid 10a-26”.

B1: CK-739 IRES: "the IRES having the sequence of SEQ ID NO: 3282"; "had a long scanning tract" (nucleic acid)
DNA: GTGGCCACGCCCGGGCCACCGATACTTCCCTTCACTCCTTCGGGACTGTTGGGGAGGAACACAACAGGGCTCCCCTGTTTTCCCATTCCTTCCCCCTTTTCCCAACCCCAACCGCCGTATCTGGTGGCGGCAAGACACACGGGTCTTTCCCTCTAAAGCACAATTGTGTGTGTGTCCCAGGTCCTCCTGCGTACGGTGCGGGAGTGCTCCCACCCAACTGTTGTAAGCCTGTCCAACGCGTCGTCCTGGCAAGACTATGACGTCGCATGTTCCGCTGCGGATGCCGACCGGGTAACCGGTTCCCCAGTGTGTGTAGTGCGATCTTCCAGGTCCTCCTGGTTGGCGTTGTCCAGAAACTGCTTCAGGTAAGTGGGGTGTGCCCAATCCCTACAAAGGTTGATTCTTTCACCACCTTAGGAATGCTCCGGAGGTACCCCAGCAACAGCTGGGATCTGACCGGAGGCTAATTGTCTACGGGTGGTGTTTCCTTTTTCTTTTCACACAACTCTACTGCGTACAACTCACTGACTATCCACTTGCTCTGTCACG
modifications: Description of Unknown: CK1.4; Caprine Kobuvirus variant sequence
Take B1: the “expression after terminal or scanning tract deletions of the IRES” value in the data set on 1C1C7 cells is “relatively unaffected by deletions in the scanning tract”.
